Source: ChEMBL document CHEMBL4354782, “Quinolone antibiotics” (Medchemcomm, 2019)
In brackets after ≈: the same amount, converted by molar mass.

What was measured:
Escherichia coli = test: Antibacterial activity against Escherichia coli by agar diffusion method; type: functional
Klebsiella = test: Antibacterial activity against Klebsiella by agar diffusion method; type: functional
Bacteroides fragilis = test: Antibacterial activity against Bacteroides fragilis by agar diffusion method; type: functional
Haemophilus influenzae = test: Antibacterial activity against Haemophilus influenzae with horse blood by agar diffusion method; type: functional
Streptococcus pyogenes = test: Antibacterial activity against Streptococcus pyogenes by agar diffusion method; type: functional
Enterococcus = test: Antibacterial activity against Enterococcus by agar diffusion method; type: functional
[1] = Cmax in human at 0.75 g, po bid; conditions: in vivo
[2] = AUC in human at 0.75 g, po bid; conditions: in vivo
Pseudomonas aeruginosa = test: Antibacterial activity against Pseudomonas aeruginosa by agar diffusion method; type: functional
Staphylococcus aureus = test: Antibacterial activity against Staphylococcus aureus by agar diffusion method; type: functional
Streptococcus pneumoniae = test: Antibacterial activity against Streptococcus pneumoniae by agar diffusion method; type: functional
[3] = Cmax in human at 0.2 g, po bid; type: ADME, organism-based; set-up: dose 0.2 g, route oral; conditions: in vivo
[4] = AUC in human at 0.2 g, po bid; type: ADME, organism-based; conditions: in vivo
[5] = Half life in human at 0.2 g, po bid; type: ADME, organism-based; conditions: in vivo
[6] = Protein binding in human at 0.2 g, po bid; type: ADME, organism-based; conditions: in vivo, read-out: PB (converted)
Homo sapiens = species on record: Homo sapiens; test: Phototoxicity in human; type: organism-based; conditions: in vivo
Clostridium perfringens = test: microbe, parasite or virus in culture
[7] = Cmax in human at 0.6 g, po; type: ADME; set-up: dose 0.6 g, route oral; conditions: in vivo
[8] = AUC in human at 0.6 g, po; type: ADME; conditions: in vivo
[9] = Half life in human at 0.6 g, po; type: ADME; conditions: in vivo
[10] = Protein binding in human at 0.6 g, po; type: ADME; conditions: in vivo, read-out: PB (converted)
[11] = Cmax in human at 0.4 g, po; type: ADME; set-up: dose 0.4 g, route oral; conditions: in vivo
[12] = AUC in human at 0.4 g, po; type: ADME; conditions: in vivo
[13] = Half life in human at 0.4 g, po; type: ADME; conditions: in vivo
[14] = Protein binding in human at 0.4 g, po; type: ADME; conditions: in vivo; for fraction unbound: read-out: PB (converted)
[15] = Cmax in human at 0.32 g, po; type: ADME; set-up: dose 0.32 g, route oral; conditions: in vivo
[16] = AUC in human at 0.32 g, po; type: ADME; conditions: in vivo
[17] = Half life in human at 0.32 g, po; type: ADME; conditions: in vivo
[18] = Protein binding in human at 0.32 g, po; type: ADME; conditions: in vivo, read-out: PB (converted)
[19] = Toxicity in human assessed as gastrointestinal effect
[20] = Toxicity in human assessed as arthralgia effect
[21] = Cardiotoxicity in human QTc prolongation; type: toxicity
[22] = Toxicity in human assessed as hepatic eosinophilia effect
[23] = Toxicity in human assessed as CNS effect by measuring alteration in mentation

## O=C(O)c1cn(C2CC2)c2cc(N3CCNCC3)c(F)cc2c1=O [CIPROFLOXACIN]
Escherichia coli
  MIC90: 0.03 µg/mL (≈ 0.0905 µM)
Klebsiella
  MIC90: 0.25 µg/mL (≈ 0.754 µM)
Bacteroides fragilis
  MIC90: 16 µg/mL (≈ 48.3 µM)
Haemophilus influenzae
  MIC90: 0.03 µg/mL (≈ 0.0905 µM)
Streptococcus pyogenes
  MIC90: 1 µg/mL (≈ 3.02 µM)
Enterococcus
  MIC90: 4 µg/mL (≈ 12.1 µM)
[1]
  Cmax: 3500 ng/mL
[2]
  AUC: 30000 ng·h/mL

## NC1CCN(c2c(F)cc3c(=O)c(C(=O)O)cn(C4CC4)c3c2Cl)C1 (configuration not stated) [CLINAFLOXACIN]
Escherichia coli
  MIC90: 0.01 µg/mL (≈ 0.0273 µM)
Pseudomonas aeruginosa
  MIC90: 0.5 µg/mL (≈ 1.37 µM)
Klebsiella
  MIC90: 0.03 µg/mL (≈ 0.082 µM)
Bacteroides fragilis
  MIC90: 0.25 µg/mL (≈ 0.683 µM)
Haemophilus influenzae
  MIC90: 0.01 µg/mL (≈ 0.0273 µM)
Staphylococcus aureus
  MIC90: 0.06 µg/mL (≈ 0.164 µM)
Streptococcus pneumoniae
  MIC90: 0.12 µg/mL (≈ 0.328 µM)
Streptococcus pyogenes
  MIC90: 0.06 µg/mL (≈ 0.164 µM)
Enterococcus
  MIC90: 0.25 µg/mL (≈ 0.683 µM)
[3]
  Cmax: 1600 ng/mL
[4]
  AUC: 18000 ng·h/mL
[5]
  half-life: 6 h
[6]
  fraction unbound: 0.6
Homo sapiens
  Activity: > 10%
Clostridium perfringens
  MIC90: 0.12 µg/mL (≈ 0.328 µM)

## CCn1cc(C(=O)O)c(=O)c2cc(F)c(N3CCNCC3)nc21 [ENOXACIN]
Escherichia coli
  MIC90: 0.25 µg/mL (≈ 0.78 µM)
Pseudomonas aeruginosa
  MIC90: > 64 µg/mL
Klebsiella
  MIC90: 2 µg/mL (≈ 6.24 µM)
Bacteroides fragilis
  MIC90: > 64 µg/mL
Haemophilus influenzae
  MIC90: 0.12 µg/mL (≈ 0.375 µM)
Staphylococcus aureus
  MIC90: 2 µg/mL (≈ 6.24 µM)
Streptococcus pneumoniae
  MIC90: 64 µg/mL (≈ 200 µM)
Streptococcus pyogenes
  MIC90: > 64 µg/mL
Enterococcus
  MIC90: 8 µg/mL (≈ 25 µM)
[7]
  Cmax: 3700 ng/mL
[8]
  AUC: 29000 ng·h/mL
[9]
  half-life: 2 h
[10]
  fraction unbound: 0.4
Clostridium perfringens
  MIC90: > 64 µg/mL

## C[C@H]1NCc2cc(-c3ccc4c(=O)c(C(=O)O)cn(C5CC5)c4c3OC(F)F)ccc21 [GARENOXACIN]
Escherichia coli
  MIC90: 0.06 µg/mL (≈ 0.141 µM)
Pseudomonas aeruginosa
  MIC90: 16 µg/mL (≈ 37.5 µM)
Klebsiella
  MIC90: 0.5 µg/mL (≈ 1.17 µM)
Bacteroides fragilis
  MIC90: 1 µg/mL (≈ 2.35 µM)
Haemophilus influenzae
  MIC90: 0.03 µg/mL (≈ 0.0704 µM)
Staphylococcus aureus
  MIC90: 0.03 µg/mL (≈ 0.0704 µM)
Streptococcus pneumoniae
  MIC90: 0.12 µg/mL (≈ 0.281 µM)
Streptococcus pyogenes
  MIC90: 0.25 µg/mL (≈ 0.586 µM)
Enterococcus
  MIC90: 0.5 µg/mL (≈ 1.17 µM)
[11]
  Cmax: 5800 ng/mL
[12]
  AUC: 59000 ng·h/mL
[13]
  half-life: 15 h
[14]
  fraction unbound: 0.13
Clostridium perfringens
  MIC90: 0.25 µg/mL (≈ 0.586 µM)

## COc1c(N2CCNC(C)C2)c(F)cc2c(=O)c(C(=O)O)cn(C3CC3)c12 (configuration not stated) [GATIFLOXACIN]
Escherichia coli
  MIC90: 0.06 µg/mL (≈ 0.16 µM)
Pseudomonas aeruginosa
  MIC90: 4 µg/mL (≈ 10.7 µM)
Klebsiella
  MIC90: 0.25 µg/mL (≈ 0.666 µM)
Bacteroides fragilis
  MIC90: 1 µg/mL (≈ 2.66 µM)
Haemophilus influenzae
  MIC90: 0.03 µg/mL (≈ 0.0799 µM)
Staphylococcus aureus
  MIC90: 0.25 µg/mL (≈ 0.666 µM)
Streptococcus pneumoniae
  MIC90: 0.25 µg/mL (≈ 0.666 µM)
Streptococcus pyogenes
  MIC90: 0.25 µg/mL (≈ 0.666 µM)
Enterococcus
  MIC90: 1 µg/mL (≈ 2.66 µM)
[11]
  Cmax: 3800 ng/mL
[12]
  AUC: 33000 ng·h/mL
[13]
  half-life: 12 h
[14]
  fraction unbound: 0.8
Clostridium perfringens
  MIC90: 0.5 µg/mL (≈ 1.33 µM)

## CO/N=C1\CN(c2nc3c(cc2F)c(=O)c(C(=O)O)cn3C2CC2)CC1CN (configuration not stated) [GEMIFLOXACIN]
Escherichia coli
  MIC90: 0.03 µg/mL (≈ 0.077 µM)
Pseudomonas aeruginosa
  MIC90: 4 µg/mL (≈ 10.3 µM)
Klebsiella
  MIC90: 0.25 µg/mL (≈ 0.642 µM)
Haemophilus influenzae
  MIC90: 0.06 µg/mL (≈ 0.154 µM)
Staphylococcus aureus
  MIC90: 0.06 µg/mL (≈ 0.154 µM)
Streptococcus pneumoniae
  MIC90: 0.03 µg/mL (≈ 0.077 µM)
Streptococcus pyogenes
  MIC90: 0.06 µg/mL (≈ 0.154 µM)
Enterococcus
  MIC90: 4 µg/mL (≈ 10.3 µM)
[15]
  Cmax: 1000 ng/mL
[16]
  AUC: 9000 ng·h/mL
[17]
  half-life: 7 h
[18]
  fraction unbound: 0.4

## Cc1c(F)c(N2CCNC(C)C2)cc2c1c(=O)c(C(=O)O)cn2C1CC1 (configuration not stated) [GREPAFLOXACIN]
Escherichia coli
  MIC90: 0.06 µg/mL (≈ 0.167 µM)
Pseudomonas aeruginosa
  MIC90: 8 µg/mL (≈ 22.3 µM)
Klebsiella
  MIC90: 0.12 µg/mL (≈ 0.334 µM)
Bacteroides fragilis
  MIC90: 8 µg/mL (≈ 22.3 µM)
Haemophilus influenzae
  MIC90: 0.01 µg/mL (≈ 0.0278 µM)
Staphylococcus aureus
  MIC90: 0.12 µg/mL (≈ 0.334 µM)
Streptococcus pneumoniae
  MIC90: 0.25 µg/mL (≈ 0.696 µM)
Streptococcus pyogenes
  MIC90: 1 µg/mL (≈ 2.78 µM)
Enterococcus
  MIC90: 4 µg/mL (≈ 11.1 µM)
[11]
  Cmax: 1400 ng/mL
[12]
  AUC: 14000 ng·h/mL
[13]
  half-life: 14 h
[14]; read-out: PB
  protein-bound fraction: 0.5
[19]
  Activity: > 10%
[20]
  Activity: 0.5 to 2%
[21]
  Activity: 2.9%
[22]
  Activity: 0.006%
Clostridium perfringens
  MIC90: 1 µg/mL (≈ 2.78 µM)

## C[C@H]1COc2c(N3CCN(C)CC3)c(F)cc3c(=O)c(C(=O)O)cn1c23.C[C@H]1COc2c(N3CCN(C)CC3)c(F)cc3c(=O)c(C(=O)O)cn1c23.O [LEVOFLOXACIN]
[20]
  Activity: 0.5 to 2%
[23]
  Activity: 0.026%
